The values that follow come from PMC10056348, “Photocaged Histone Deacetylase Inhibitors as Prodrugs in Targeted Cancer Therapy” (Pharmaceuticals, 2023).

In general, IC50 refers to the midpoint of a concentration-inhibition curve. Low readings indicate greater potency, high ones weaker potency. What is called inhibition is the share of the control response that was lost under treatment.

In assay [1] the test system is caspase 3/7 in A2780 cells. The assay is described as follows: Caspase-Glo 3/7 assay. In kind it is cell-based, human. The conditions noted are these: A2780, 0.5 µM, 24 h. The procedure:
A2780 cells (8000 cells/well) were seeded in white sterile 96-well plates (ThermoFisher Scientific, Waltham, MA, USA, #136102). Dilutions (500 µM) in DMSO were prepared from the respective stock solutions in DMSO (10 mM). Predilutions used for photolysis experiments were irradiated in clear U-bottom 96-well microplates (Greiner Bio-One, Greiner AG, Kremsmünster, Austria) for 10 min in the UV reactor described above. Vehicle control (DMSO) or compounds, at a concentration of 0.5 µM, were added to the cells. The cells were then incubated for 24 h under standard culture conditions. The final volume was 100 µL, and the final DMSO concentration was 0.1%. After 24 h, cells were subsequently incubated with Caspase-Glo 3/7 substrate (Promega, Madison, WI, USA, #G8091) for 1 h at 25 °C, according to the manufacturer´s protocol. Luminescence was detected at 25 °C using a Spark microplate reader (Tecan Group AG, Maennedorf, Swiss). Two independent experiments were performed in triplicates.
GraphPad Prism (GraphPad Software, San Diego, CA, USA) was used to perform statistical analysis. Normality of the data was assessed using Shapiro–Wilk’s and Kolmogorov–Smirnov tests. To determine statistical differences between means, a one-way analysis of variance (ANOVA) was performed. If the difference was significant (p < 0.05), the mean of each column was compared to the mean of the control and corrected for multiple comparisons using Dunnett’s post-hoc test. Differences were considered statistically significant at * p < 0.05, ** p < 0.01, *** p < 0.001.

For a further assay, the system named is A2780 cells. The assay is described as follows: Annexin V/PI apoptosis assay (flow cytometry). The conditions noted are these: A2780, 0.5 µM, 48 or 72 h. The format is cell-based, human. The procedure: A2780 cells (4 × 10^4 cells/mL) were seeded in 6-well plates (Starlab GmbH, Hamburg, Germany) and allowed to attach. First, dilutions (500 µM) in DMSO were prepared from the respective stock solutions in DMSO (10 mM). Predilutions for photolysis experiments were irradiated in clear U-bottom 96-well microplates (Greiner Bio-One, Greiner AG, Kremsmünster, Austria) for 10 min in the UV reactor described above. Subsequently, vehicle control (DMSO) or compounds, at a concentration of 0.5 µM, were added to the cells and incubated for 48 h and 72 h, respectively. The final volume was 3 mL, and the final DMSO concentration was 0.1%. Staining was performed in triplicate in two separate experiments using annexin V and propidium iodide and analyzed by flow cytometry (Guava® easyCyte^TM, Luminex, Austin, TX, USA), according to the manufacturer’s protocol (BioLegend, San Diego, CA, USA).
Results were expressed as mean with standard deviation (SD). Statistical analysis was performed using GraphPad Prism (GraphPad Software, San Diego, CA, USA). Normality of the data was analyzed using the Shapiro–Wilk’s test. Statistical significance was assessed using one-way analysis of variance (ANOVA) with Tukey’s multiple comparison test. Differences were considered statistically significant at * p < 0.05, ** p < 0.01, *** p < 0.001.
(In flow cytometry, cells or beads pass a laser one at a time.)

A further assay deals with MV-3 cell line. The assay is described as follows: MTT cell viability assay, MV-3. In kind it is cell-based. How it is done:
(§1) The amelanotic melanoma cell line MV-3 was obtained from EPO GmbH Berlin-Buch. The human ovarian carcinoma cell line A2780 was obtained from the European Collection of Cell Cultures (ECACC, Salisbury, UK). The cell lines were cultivated in RPMI 1640 medium supplemented with 10% fetal bovine serum and 50 U/mL penicillin and 50 µg/mL streptomycin and incubated at 37 °C under humidified air with 5% CO2 to 80–90% confluency before being used in further assays.
(§2) For this, 200-fold dilution series of the compounds of the respective stock solutions in DMSO (10 mM) were prepared in DMSO using clear U-bottom 96-well microplates (Greiner Bio-One, Greiner AG, Kremsmünster, Austria). Predilutions intended for photolysis experiments were irradiated for 10 min in the UV reactor described above. Thereafter, all predilutions were further diluted 1:200 in medium and provided in clear sterile F-bottom 96-well plates (Starlab GmbH, Hamburg, Germany). MV-3 cells were added at a density of 3000 cells/well and A2780 cells at a density of 8000 cells/well. The cells were added directly and without prior attachment. Final volume was 200 µL, and the final DMSO concentration was 0,5%. After 72 h, 40 µL MTT (3-(4,5-dimethylthiazol-2-yl)-2,5-diphenyltetrazolium bromide; BioChemica, Applichem GmbH, Darmstadt, Germany ) solution (5 mg/mL in phosphate-buffered saline) was added to determine cell survival. The formazan dye was dissolved in DMSO (Sigma-Aldrich, Steinheim, Germany) after 1 h, and absorbance was measured at 570 nm and 690 nm using a Multiskan microplate photometer (Thermo Fisher Scientific, Waltham, MA, USA). Concentration-effect curves were generated using the four-parameter logistic equation (GraphPad Prism 9.0, San Diego, CA, USA), and mean IC50 values were determined by nonlinear regression based on at least three distinct experiments in duplicates.

A further assay relates to A2780 cell line. As to the kind of experiment: MTT cell viability assay, A2780. In kind it is cell-based, human. The procedure: as §1, §2
In general terms: Tetrazolium assays rely on reduction of a dye to a coloured formazan, in cell work by metabolically active cells.

[2] abbreviates: MTT, 72 h, without UV irradiation.

Each structure is given as a SMILES string.

Consider `CN(C)c1ccc(C(=O)N(CC(=O)NCc2ccccc2)Cc2ccc(C(=O)NO)cc2)cc1` [I, N-[2-(benzylamino)-2-oxoethyl]-4-(dimethylamino)-N-[4-(hydroxycarbamoyl)-benzyl]-benzamide], for which the “activation of caspase 3/7” value in assay [1] (without UV) was “significant activation of caspase 3/7”. Besides, the “early and late apoptosis vs DMSO control” value in the assay on A2780 cells (without UV irradiation) is “significant increase in early and late apoptotic cells”. The IC50 in the assay on MV-3 cell line (MV-3, light or radiation study, MTT, 72 h, without UV irradiation) is 0.616 ± 0.161 µM; in the assay with A2780 cell line (Homo sapiens, A2780, light or radiation study, MTT, 72 h, without UV irradiation) it was 0.249 ± 0.0847 µM.

`COc1cc(CONC(=O)c2ccc(CN(CC(=O)NCc3ccccc3)C(=O)c3ccc(N(C)C)cc3)cc2)c([N+](=O)[O-])cc1OC` [pc-I, N-[2-(Benzylamino)-2-oxoethyl]-N-(4-{[(4,5-dimethoxy-2-nitrobenzyl)oxy]carbamoyl}benzyl)-4-(dimethylamino)benzamide]: the “activation of caspase 3/7” value in assay [1] (+ UV (365 nm, 10 min)) was “significant activation of caspase 3/7”; in assay [1] (without UV), “inactive”. The “early and late apoptosis vs DMSO control” value with A2780 cells (after light activation) was “increased apoptosis levels which were comparable to compound I”; in the assay with A2780 cells (without UV irradiation), “no significant increase in early and late apoptosis”. Besides, the “IC50 (MV-3)” value with MV-3 cell line (setting [2]) is listed as “n.e. ^b (n.e— no effect: <25% inhibition at 25 µM)”. Further, the IC50 in the assay with MV-3 cell line (MV-3, light or radiation study, MTT, 72 h, after UV irradiation (365 nm, 10 min)) was found to be 0.727 ± 0.133 µM; in the assay on A2780 cell line (Homo sapiens, A2780, light or radiation study, MTT, 72 h, after UV irradiation (365 nm, 10 min)), 0.428 ± 0.0625 µM. The inhibition at 25 µM was under 25% in the assay with MV-3 cell line (MV-3, light or radiation study, at 25 µM, without UV irradiation) and under 25% in the assay with A2780 cell line (Homo sapiens, A2780, light or radiation study, at 25 µM, without UV irradiation). For the same compound, the “IC50 (A2780)” value in the assay on A2780 cell line (setting [2]) is listed as “n.e. ^b (n.e— no effect: <25% inhibition at 25 µM)”.
